Source: patent US20230192686A1, “1H-PYRROLO[2,3-B]PYRIDINES AND PREPARATION AND USES THEREOF” (BioSplice Therapeutics, Inc., priority 2021, published 2023)

Biological target: recombinant DYRK1A kinase (Homo sapiens, UniProt Q13627)
Test: DYRK1A kinase assay (Ser/Thr 18 peptide Z-lyte FRET)
Format: biochemical
Settings: DYRK1A kinase activity; 15 μM ATP, 4 μM Ser/Thr peptide 18, one hour at room temperature
Experimental: Representative compounds were screened using the assay procedure for DYRK1A kinase activity as described below.
Each compound was dissolved in DMSO as a 10 mM stock and used to prepare compound source plates. Serial dilution (1:3, 11-point dose-response curves from 10 μM to 0.00016 μM) and compound transfer was performed using the ECHO 550 (Labcyte, Sunnyvale, Calif.) into 1536-well black-walled round bottom plates (Corning).
The DYRK1A kinase assay was run using the Ser/Thr 18 peptide Z-lyte assay kit according to manufacturer's instructions (Life Technologies—a Division of Thermo-Fisher). This is a non-radioactive assay using fluorescence resonance energy transfer (FRET) between coumarin and fluorescein to detect kinase activity which is represented as a ratio of coumarin emission/fluorescein emission.
Briefly, recombinant DYRK1A kinase, ATP and Ser/Thr peptide 18 were prepared in 1× Kinase buffer to final concentrations of 0.25 μg/mL, 15 μM, and 4 μM respectively. The mixture was allowed to incubate with the representative compounds for one hour at room temperature. All reactions were performed in duplicate. Unphosphorylated (“0% Control”) and phosphorylated (“100% control”) forms of Ser/Thr 18 served as control reactions. Additionally, an 11-point dose-response curve of Staurosporine (1 uM top) was run to serve as a positive compound control.
After incubation, Development Reagent A was diluted in Development Buffer then added to the reaction and allowed to further incubate for one hour at room temperature. The plate was read at Ex 400 Em 455 to detect the coumarin signal and Ex 400 Em 520 to measure the signal (EnVision Multilabel Plate Reader, PerkinElmer).
The Emission ratio (Em) was calculated as a ratio of the coumarin (C) emission signal (at 445 nm)/Fluorescein (F) emission signal (at 520 nm). The percent phosphorylation was then calculated using the following formula: [1−((Em ratio×F100%)−C100%)/((C0%−C100%)+(Em ratio×(F100%−F0%)))]. Dose-response curves were generated, and inhibitory concentration (IC50) values were calculated using non-linear regression curve fit in the Dotmatics' Studies Software (Bishops Stortford, UK).

SMILES | EC50 [nM]
c1cnc2[nH]cc(-c3ccnc4[nH]ccc34)c2c1 [Compound 2, 1H,1′H-3,4′-Bipyrrolo[2,3-b]pyridine] | 50
Cn1cc2cc(-c3c[nH]c4ncccc34)ccc2n1 [Compound 3, 2-Methyl-5-(1H-pyrrolo[2,3-b]pyridin-3-yl)-2H-indazole] | 6
c1cnc2sc(-c3c[nH]c4ncccc34)nc2c1 [Compound 4, 2-(1H-Pyrrolo[2,3-b]pyridin-3-yl)thiazolo[5,4-b]pyridine] | 7
c1cnc2[nH]cc(-c3cc4ccncc4s3)c2c1 [Compound 5, 2-(1H-Pyrrolo[2,3-b]pyridin-3-yl)thieno[2,3-c]pyridine] | 10
c1cnc2[nH]cc(-c3nc4cnccc4[nH]3)c2c1 [Compound 7, 2-(1H-Pyrrolo[2,3-b]pyridin-3-yl)-1H-imidazo[4,5-c]pyridine] | 201
O=C1NCCn2nc(-c3c[nH]c4ncccc34)cc21 [Compound 8, 2-(1H-Pyrrolo[2,3-b]pyridin-3-yl)-6,7-dihydropyrazolo[1,5-a]pyrazin-4(5H)-one] | 7
CC1(C)NC(=O)c2cc(-c3c[nH]c4ncccc34)nn21 [Compound 9, 6,6-Dimethyl-2-(1H-pyrrolo[2,3-b]pyridin-3-yl)-5,6-dihydro-4H-imidazo[1,5-b]pyrazol-4-one] | 19
O=C1NCCn2cc(-c3c[nH]c4ncccc34)cc21 [Compound 10, 7-(1H-Pyrrolo[2,3-b]pyridin-3-yl)-3,4-dihydropyrrolo[1,2-a]pyrazin-1(2H)-one] | 14
O=C1NCCc2sc(-c3c[nH]c4ncccc34)cc21 [Compound 11, 2-(1H-Pyrrolo[2,3-b]pyridin-3-yl)-6,7-dihydrothieno[3,2-c]pyridin-4(5H)-one] | 12
c1cnc2[nH]cc(-c3ccc4nccn4c3)c2c1 [Compound 12, 6-(1H-Pyrrolo[2,3-b]pyridin-3-yl)imidazo[1,2-a]pyridine] | 3
Cc1cn2cc(-c3c[nH]c4ncccc34)cc(F)c2n1 [Compound 13, 8-Fluoro-2-methyl-6-(1H-pyrrolo[2,3-b]pyridin-3-yl)imidazo[1,2-a]pyridine] | 21
CN1CCC(NC(=O)c2cnc3ccc(-c4c[nH]c5ncccc45)cn23)CC1 [Compound 14, N-(1-Methylpiperidin-4-yl)-6-(1H-pyrrolo[2,3-b]pyridin-3-yl)imidazo[1,2-a]pyridine-3-carboxamide] | 1
CN(C)Cc1cnc2ccc(-c3c[nH]c4ncccc34)cn12 [Compound 18, 1-(6-(1H-Pyrrolo[2,3-b]pyridin-3-yl)imidazo[1,2-a]pyridin-3-yl)-N,N-dimethylmethanamine] | 17
c1cnc2[nH]cc(-c3cn4ccnc4cn3)c2c1 [Compound 20, 6-(1H-Pyrrolo[2,3-b]pyridin-3-yl)imidazo[1,2-a]pyrazine] | 10
CN1CCN(C(=O)c2cnc3cnc(-c4c[nH]c5ncccc45)cn23)CC1 [Compound 21, (6-(1H-Pyrrolo[2,3-b]pyridin-3-yl)imidazo[1,2-a]pyrazin-3-yl)(4-methylpiperazin-1-yl)methanone] | 16
Cc1nc2c(F)cc(-c3c[nH]c4ncccc34)cc2n1C1CCNCC1 [Compound 23, 4-Fluoro-2-methyl-1-(piperidin-4-yl)-6-(1H-pyrrolo[2,3-b]pyridin-3-yl)-1H-benzo[d]imidazole] | 2
Cc1nc2c(F)cc(-c3c[nH]c4ncccc34)cc2n1C1CCN(C)CC1 [Compound 24, 4-Fluoro-2-methyl-1-(1-methylpiperidin-4-yl)-6-(1H-pyrrolo[2,3-b]pyridin-3-yl)-1H-benzo[d]imidazole] | 1
Cc1nc2ccc(-c3c[nH]c4ncccc34)nc2n1C(C)C [Compound 27, 3-Isopropyl-2-methyl-5-(1H-pyrrolo[2,3-b]pyridin-3-yl)-3H-imidazo [4,5-b]pyridine] | 2
c1cnc2[nH]cc(-c3ccc4nc5n(c4n3)CCC5)c2c1 [Compound 28, 2-(1H-Pyrrolo[2,3-b]pyridin-3-yl)-7,8-dihydro-6H-pyrrolo [2′,1′:2,3]imidazo[4,5-b]pyridine] | 19
c1cnc2[nH]cc(-c3ccc4ncnn4c3)c2c1 [Compound 29, 6-(1H-Pyrrolo[2,3-b]pyridin-3-yl)-[1,2,4]triazolo[1,5-a]pyridine] | 10
c1cnc2[nH]cc(-c3ccn4ncnc4c3)c2c1 [Compound 30, 7-(1H-Pyrrolo[2,3-b]pyridin-3-yl)-[1,2,4]triazolo[1,5-a]pyridine] | 13
Cn1nnc2ccc(-c3c[nH]c4ncccc34)cc21 [Compound 31, 1-Methyl-6-(1H-pyrrolo[2,3-b]pyridin-3-yl)-1H-benzo[d][1,2,3]triazole] | 4
Cc1nnc2ccc(-c3c[nH]c4ncccc34)cn12 [Compound 32, 3-Methyl-6-(1H-pyrrolo[2,3-b]pyridin-3-yl)-[1,2,4]triazolo[4,3-a] pyridine] | 151

Continued, values first:

EC50 [nM] | SMILES
2 | Cc1cnc2ccc(-c3c[nH]c4ncccc34)nn12 [Compound 34, 3-Methyl-6-(1H-pyrrolo[2,3-b]pyridin-3-yl)imidazo[1,2-b]pyridazine]
2 | OCc1cnc2ccc(-c3c[nH]c4ncccc34)nn12 [Compound 35, (6-(1H-Pyrrolo[2,3-b]pyridin-3-yl)imidazo[1,2-b]pyridazin-3-yl) methanol]
2 | c1cnc2[nH]cc(-c3ccn4nccc4c3)c2c1 [Compound 36, 3-(Pyrazolo[1,5-a]pyridin-5-yl)-1H-pyrrolo[2,3-b]pyridine]
2 | c1cncc(-c2cnn3ccc(-c4c[nH]c5ncccc45)cc23)c1 [Compound 38, 3-(3-(Pyridin-3-yl)pyrazolo[1,5-a]pyridin-5-yl)-1H-pyrrolo[2,3-b] pyridine]
2 | O=C(NCC1(F)CNC1)c1cnn2ccc(-c3c[nH]c4ncccc34)cc12 [Compound 41, N-((3-Fluoroazetidin-3-yl)methyl)-5-(1H-pyrrolo[2,3-b]pyridin-3-yl) pyrazolo[1,5-a]pyridine-3-carboxamide]
2 | CN1CC(F)(CNC(=O)c2cnn3ccc(-c4c[nH]c5ncccc45)cc23)C1 [Compound 42, N-((3-Fluoro-1-methylazetidin-3-yl)methyl)-5-(1H-pyrrolo[2,3-b]pyridin-3-yl)pyrazolo[1,5-a]pyridine-3-carboxamide]
1 | O=C(N[C@@H]1CCNC[C@H]1F)c1cnn2ccc(-c3c[nH]c4ncccc34)cc12 [Compound 43, N-((3R,4R)-3-Fluoropiperidin-4-yl)-5-(1H-pyrrolo[2,3-b]pyridin-3-yl) pyrazolo[1,5-a]pyridine-3-carboxamide]
1 | CN1CC[C@@H](NC(=O)c2cnn3ccc(-c4c[nH]c5ncccc45)cc23)[C@H](F)C1 [Compound 44, N-((3R,4R)-3-Fluoro-1-methylpiperidin-4-yl)-5-(1H-pyrrolo[2,3-b]pyridin-3-yl)pyrazolo[1,5-a]pyridine-3-carboxamide]
1 | CN1CCC(NC(=O)c2cnn3ccc(-c4c[nH]c5ncccc45)cc23)CC1 [Compound 45, N-(1-Methylpiperidin-4-yl)-5-(1H-pyrrolo[2,3-b]pyridin-3-yl) pyrazolo[1,5-a]pyridine-3-carboxamide]
5 | CN1CCC(N(C)C(=O)c2cnn3ccc(-c4c[nH]c5ncccc45)cc23)CC1 [Compound 46, N-Methyl-N-(1-methylpiperidin-4-yl)-5-(1H-pyrrolo[2,3-b]pyridin-3-yl)pyrazolo[1,5-a]pyridine-3-carboxamide]
2 | O=C(NC1CCN(C2CC2)CC1)c1cnn2ccc(-c3c[nH]c4ncccc34)cc12 [Compound 47, N-(1-Cyclopropylpiperidin-4-yl)-5-(1H-pyrrolo[2,3-b]pyridin-3-yl) pyrazolo[1,5-a]pyridine-3-carboxamide]
1 | O=C(NC1CCN(CC2CC2)CC1)c1cnn2ccc(-c3c[nH]c4ncccc34)cc12 [Compound 48, N-(1-(cyclopropylmethyl)piperidin-4-yl)-5-(1H-pyrrolo[2,3-b]pyridin-3-yl)pyrazolo[1,5-a]pyridine-3-carboxamide]
1 | CC(F)(F)CN1CCC(NC(=O)c2cnn3ccc(-c4c[nH]c5ncccc45)cc23)CC1 [Compound 49, N-(1-(2,2-Difluoropropyl)piperidin-4-yl)-5-(1H-pyrrolo[2,3-b]pyridin-3-yl)pyrazolo[1,5-a]pyridine-3-carboxamide]
1 | COCCN1CCC(NC(=O)c2cnn3ccc(-c4c[nH]c5ncccc45)cc23)CC1 [Compound 50, N-(1-(2-Methoxyethyl)piperidin-4-yl)-5-(1H-pyrrolo[2,3-b]pyridin-3-yl)pyrazolo[1,5-a]pyridine-3-carboxamide]
